Source: patent US9302999B2, “Substituted triazoles as herbicides” (E. I. DU PONT DE NEMOURS AND COMPANY, priority 2012, dated 2016)

Tests used:
Assay type in all cases: in vivo
[1] = system: Russian thistle (Salsola kali); test: Test C pre-/postemergence: Russian thistle; conditions: Preemergence
Text: Seeds of plant species selected from blackgrass (Alopecurus myosuroides), bromegrass, downy (downy bromegrass, Bromus tectorum), foxtail, green (green foxtail, Setaria viridis), ryegrass, Italian (Italian ryegrass, Lolium multiflorum), winter wheat (Triticum aestivum), wild oat (Avena fatua), galium (catchweed bedstraw, Galium aparine), bermudagrass (Cynodon dactylon), surinam grass (Brachiaria decumbens), cocklebur (common cocklebur, Xanthium strumarium), corn (Zea mays), large crabgrass (Digitaria sanguinalis), woolly cupgrass (Eriochloa villosa), foxtail, giant (giant foxtail, Setaria faberii), goosegrass (Eleusine indica), johnsongrass (Sorghum halepense), kochia (Kochia scoparia), lambsquarters (Chenopodium album), morningglory (Ipomoea coccinea), nightshade (eastern black nightshade, Solanum ptycanthum), nutsedge, yellow (yellow nutsedge, Cyperus esculentus), pigweed (Amaranthus retroflexus), ragweed (common ragweed, Ambrosia elation), soybean (Glycine max), common (oilseed) sunflower (Helianthus annuus), Russian thistle (Salsola kali) and velvetleaf (Abutilon theophrasti) were planted into a blend of loam soil and sand and treated preemergence with test chemicals formulated in a non-phytotoxic solvent mixture which included a surfactant.
At the same time, plants selected from these crop and weed species and also barley (winter barley, Hordeum vulgare), canarygrass (Phalaris minor), chickweed (common chickweed, Stellaria media) windgrass (Apera spica-venti) and deadnettle (henbit deadnettle, Lamium amplexicaule) were planted in pots containing Redi-Earth® planting medium (Scotts Company, 14111 Scottslawn Road, Marysville, Ohio 43041) comprising spaghnum peat moss, vermiculite, wetting agent and starter nutrients and treated with postemergence applications of test chemicals formulated in the same manner. Plants ranged in height from 2 to 18 cm (1- to 4-leaf stage) for postemergence treatments.
Treated plants and controls were maintained in a greenhouse for 13 to 15 days, after which time all species were compared to controls and visually evaluated. Plant response ratings, summarized in Table C, are based on a scale of 0 to 100 where 0 is no effect and 100 is complete control. A dash (-) response means no test result.

[2] = system: ryegrass, Italian (Italian ryegrass, Lolium multiflorum); test: Test D pre-/postemergence: ryegrass, Italian
Text: (§1) Seeds of plant species selected from bluegrass (annual bluegrass, Poa annua), blackgrass (Alopecurus myosuroides), canarygrass (Phalaris minor), chickweed (common chickweed, Stellaria media), galium (catchweed bedstraw, Galium aparine), bromegrass, downy (downy bromegrass, Bromus tectorum), field poppy (Papaver rhoeas), field violet (Viola arvensis), foxtail, green (green foxtail, Setaria viridis), deadnettle (henbit deadnettle, Lamium amplexicaule), ryegrass, Italian (Italian ryegrass, Lolium multiflorum), kochia (Kochia scoparia), lambsquarters (Chenopodium album), oilseed rape (Brassica napus), pigweed (Amaranthus retroflexus), Russian thistle (Salsola iberica), chamomile (scentless chamomile, Matricaria inodora), speedwell (bird's-eye speedwell, Veronica persica), barley, spring (spring barley, Hordeum vulgare), wheat, spring (spring wheat, Triticum aestivum), buckwheat, wild (wild buckwheat, Polygonum convolvulus), mustard, wild (wild mustard, Sinapis arvensis), oat, wild (wild oat, Avena fatua), radish, wild (wild radish, Raphanus raphanistrum), windgrass (Apera spica-venti), barley, winter (winter barley, Hordeum vulgare), and wheat, winter (winter wheat, Triticum aestivum) were planted into a silt loam soil and treated preemergence with test chemicals formulated in a non-phytotoxic solvent mixture which included a surfactant. At the same time, these same crop and weed species were planted in pots containing the planting medium comprising spaghnum peat moss, vermiculite, wetting agent and starter nutrients and treated with postemergence applications of the test chemicals formulated in the same manner. Plants ranged in height from 2 to 18 cm (1- to 4-leaf stage).
(§2) Treated plants and controls were maintained in a controlled growth environment for 14 to 21 days after which time all species were compared to controls and visually evaluated. Plant response ratings, summarized in Table D, are based on a scale of 0 to 100 where 0 is no effect and 100 is complete control. A dash (-) response means no test result.

[3] = system: oilseed rape (Brassica napus); test: Test D pre-/postemergence: oilseed rape
Text: as §1, §2

[4] = system: wheat, spring (spring wheat, Triticum aestivum); test: Test D pre-/postemergence: wheat, spring
Text: as §1, §2

kochia (Kochia scoparia) = test: Test F pre-/postemergence: kochia; conditions: Preemergence
Text: Seeds of plant species selected from corn (Zea mays), soybean (Glycine max), velvetleaf (Abutilon theophrasti), lambsquarters (Chenopodium album), poinsettia, wild (wild poinsettia, Euphorbia heterophylla), pigweed, palmer (palmer pigweed, Amaranthus palmeri), waterhemp (common waterhemp, Amaranthus rudis), surinam grass (Brachiaria decumbens), crabgrass, Brazil (Brazilian crabgrass, Digitaria horizontalis), panicum, fall (fall panicum Panicum dichotomiflorum), crabgrass, large (large crabgrass, Digitaria sanguinalis), foxtail, giant (giant foxtail, Setaria faberii), foxtail, green (green foxtail Setaria viridis), goosegrass (Eleusine indica), ragweed (common ragweed, Ambrosia elatior), barnyardgrass (Echinochloa crus-galli), sandbur (southern sandbur, Cenchrus echinatus), arrowleaf sida (Sida rhombifolia), ryegrass, Italian (Italian ryegrass, Lolium multiflorum), dayflower, VA (Virginia (VA) dayflower, Commelina virginica), field bindweed (Convolvulus arvensis), cocklebur (common cocklebur, Xanthium strumarium), morningglory (Ipomoea coccinea), nightshade (eastern black nightshade, Solanum ptycanthum), kochia (Kochia scoparia), nutsedge, yellow (yellow nutsedge, Cyperus esculentus), johnsongrass (Sorghum halepense), smartweed (ladysthumb smartweed, Polygonum persicaria), and beggarticks (hairy beggarticks, Bidens pilosa), were planted into a silt loam soil and treated preemergence with test chemicals formulated in a non-phytotoxic solvent mixture which included a surfactant. At the same time, plants selected from these crop and weed species and also pigweed (Amaranthus retroflexus), waterhemp_RES1 (ALS/Triazine resistant common waterhemp, Amaranthus rudis) and waterhemp_RES2 (ALS/HPPD resistant common waterhemp, Amaranthus rudis) were planted in pots containing a planting medium comprising spaghnum peat moss, vermiculite, wetting agent and starter nutrients treated with postemergence applications of some of the test chemicals formulated in the same manner. Plants ranged in height from 2 to 18 cm for postemergence treatments (1- to 4-leaf stage).
Treated plants and controls were maintained in a greenhouse for 14 to 21 days, after which time all species were compared to controls and visually evaluated. Plant response ratings, summarized in Table E, are based on a scale of 0 to 100 where 0 is no effect and 100 is complete control. A dash (-) response means no test result.

[5] = Postemergence, 31 g ai/ha, scale 0 to 100 (0 no effect, 100 complete control)
[6] = Postemergence, 62 g ai/ha, scale 0 to 100 (0 no effect, 100 complete control)
[7] = Postemergence, 125 g ai/ha, scale 0 to 100, 0 no effect, 100 complete control
[8] = Postemergence, 16 g ai/ha, scale 0 to 100
[9] = Preemergence, 16 g ai/ha, scale 0 to 100, 0 no effect, 100 complete control
[10] = Preemergence, 31 g ai/ha, scale 0 to 100, 0 no effect, 100 complete control
[11] = Preemergence, 62 g ai/ha, scale 0 to 100
[12] = Preemergence, 125 g ai/ha, scale 0 to 100
[13] = 16 g ai/ha, scale 0 to 100, 0 no effect, 100 complete control
[14] = 31 g ai/ha, scale 0 to 100, 0 no effect, 100 complete control
[15] = Postemergence, 250 g ai/ha, scale 0 to 100 (0 no effect, 100 complete control)

Row | Structure (SMILES) | Plant response rating: Ryegrass, Italian [2, 5] | Plant response rating: Ryegrass, Italian [2, 6] | Plant response rating: Ryegrass, Italian [2, 7] | Plant response rating, Ryegrass, Italian [2, 8] | Plant response rating: Oilseed Rape [3, 5] | Plant response rating: Oilseed Rape [3, 6] | Plant response rating: Oilseed Rape [3, 7] | Plant response rating, Oilseed Rape [3, 8] | Plant response rating: Wheat, Spring [4, 5] | Plant response rating: Wheat, Spring [4, 6] | Plant response rating: Wheat, Spring [4, 7] | Plant response rating, Wheat, Spring [4, 8] | Plant response rating, Kochia (kochia (Kochia scoparia); [13]) | Plant response rating, Kochia (kochia (Kochia scoparia); [14]) | Plant response rating, Kochia (kochia (Kochia scoparia); 62 g ai/ha, scale 0 to 100) | Plant response rating, Kochia (kochia (Kochia scoparia); 125 g ai/ha, scale 0 to 100) | Plant response rating, Kochia (kochia (Kochia scoparia); 250 g ai/ha, scale 0 to 100) | other results
1 | Fc1ccc(-n2nc(Cc3ccnc(C(F)(F)F)c3)c(OC(F)F)n2)cc1 [Compound 25] |  |  |  |  |  |  |  |  |  |  |  |  |  |  |  |  |  | Plant response rating, Russian Thistle ([1]; 31 g ai/ha, scale of 0 to 100, 0 is no effect, 100 is complete control): 0; Plant response rating, Russian Thistle ([1]; 125 g ai/ha, scale 0 to 100, 0 no effect, 100 complete control): 90; Plant response rating, Russian Thistle ([1]; 250 g ai/ha, scale 0 to 100, 0 no effect, 100 complete control): 90
2 | Cc1nn(-c2ccc(F)c(C(F)(F)F)c2)nc1Cc1ccnc(C(F)(F)F)c1 [Compound 156] | 15 | 10 | 25 | 5 | 100 | 100 | 100 | 100 | 15 | 20 | 25 | 10 |  |  |  |  |  | Plant response rating, Ryegrass, Italian [2, 9]: 0; Plant response rating, Ryegrass, Italian [2, 10]: 5; Plant response rating, Ryegrass, Italian [2, 11]: 5; Plant response rating, Ryegrass, Italian [2, 12]: 60; Plant response rating, Oilseed Rape [3, 9]: 0; Plant response rating, Oilseed Rape [3, 10]: 0; Plant response rating, Oilseed Rape [3, 11]: 85; Plant response rating, Oilseed Rape [3, 12]: 100; Plant response rating, Wheat, Spring [4, 9]: 0; Plant response rating, Wheat, Spring [4, 10]: 0; Plant response rating, Wheat, Spring [4, 11]: 0; Plant response rating, Wheat, Spring [4, 12]: 5
3 | CCc1nn(-c2ccc(C(F)(F)F)cc2)nc1Oc1ccnc(C(F)(F)F)c1 [Compound 169] |  |  |  |  |  |  |  |  |  |  |  |  | 0 | 95 | 95 | 98 | 98 | 
4 | CCc1nn(-c2ccc(F)cc2)nc1Cc1ccnc(C(F)(F)F)c1 [Compound 154] |  |  |  |  |  |  |  |  |  |  |  |  | 5 | 25 | 85 | 95 | 98 | 
5 | Cc1nn(-c2ccc(C(F)(F)F)cn2)nc1Oc1ccnc(C(F)(F)F)c1 [Compound 23] | 10 | 10 | 10 | 5 | 50 | 75 | 85 | 50 | 5 | 10 | 10 | 0 |  |  |  |  |  | Plant response rating: Ryegrass, Italian [2, 15]: 15; Plant response rating: Oilseed Rape [3, 15]: 95; Plant response rating: Wheat, Spring [4, 15]: 15
6 | CCc1nn(-c2ccc(C(F)(F)F)cc2)nc1Cc1ccnc(C(F)(F)F)c1 [Compound 155] | 15 | 25 | 60 | 5 | 100 | 100 | 100 | 85 | 20 | 25 | 50 | 15 |  |  | 70 | 98 | 100 | Plant response rating, Ryegrass, Italian [2, 9]: 0; Plant response rating, Ryegrass, Italian [2, 10]: 0; Plant response rating, Ryegrass, Italian [2, 11]: 10; Plant response rating, Ryegrass, Italian [2, 12]: 65; Plant response rating, Oilseed Rape [3, 9]: 0; Plant response rating, Oilseed Rape [3, 10]: 5; Plant response rating, Oilseed Rape [3, 11]: 100; Plant response rating, Oilseed Rape [3, 12]: 100; Plant response rating, Wheat, Spring [4, 9]: 0; Plant response rating, Wheat, Spring [4, 10]: 0; Plant response rating, Wheat, Spring [4, 11]: 0; Plant response rating, Wheat, Spring [4, 12]: 5
7 | CCCc1nn(-c2ccc(F)c(F)c2)nc1Oc1ccnc(C(F)(F)F)c1 [Compound 172] |  |  |  |  |  |  |  |  |  |  |  |  |  | 20 |  | 100 | 100 | 
8 | CCc1nn(-c2ccc(F)c(F)c2)nc1Oc1ccnc(C(F)(F)F)c1 [Compound 171] |  |  |  |  |  |  |  |  |  |  |  |  | 0 | 0 | 5 | 15 | 98 | 
